This passage reports Ki results from BindingDB's records for doi:10.1124/jpet.104.066761 (National Institutes of Health, 2004).

In assay [1] the target is Gastrin-releasing peptide receptor (Homo sapiens) (UniProt P30550).
A further assay deals with Neuromedin-B receptor (Homo sapiens, UniProt P28336).
The target in assay [2] is T1, Bombesin receptor subtype-3 (Homo sapiens, UniProt P32247).
T1 sequence (P32247 whole entry): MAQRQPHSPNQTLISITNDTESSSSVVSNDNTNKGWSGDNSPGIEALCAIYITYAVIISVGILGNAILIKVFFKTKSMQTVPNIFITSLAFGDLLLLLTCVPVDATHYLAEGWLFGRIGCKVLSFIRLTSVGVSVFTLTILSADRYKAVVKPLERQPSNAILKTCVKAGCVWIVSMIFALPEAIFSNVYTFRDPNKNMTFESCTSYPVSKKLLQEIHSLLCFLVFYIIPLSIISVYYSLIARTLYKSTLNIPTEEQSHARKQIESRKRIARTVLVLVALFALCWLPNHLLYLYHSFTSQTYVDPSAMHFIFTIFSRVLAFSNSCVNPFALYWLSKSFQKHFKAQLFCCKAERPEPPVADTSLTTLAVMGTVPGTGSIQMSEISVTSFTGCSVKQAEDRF

Assay [3] has as its target Gastrin-releasing peptide receptor (Homo sapiens) (UniProt P30550). The source holds these as a separate data set.

Square brackets hold non-standard residues; d marks the D form. Peptide text beside a SMILES is read from it. Nle = CCCC[C@H](N)C(=O)O; βAla = NCCC(=O)O A value given as a limit tells only on which side of the number the result lay.

Chain of Neuromedin-B receptor (P28336 whole entry): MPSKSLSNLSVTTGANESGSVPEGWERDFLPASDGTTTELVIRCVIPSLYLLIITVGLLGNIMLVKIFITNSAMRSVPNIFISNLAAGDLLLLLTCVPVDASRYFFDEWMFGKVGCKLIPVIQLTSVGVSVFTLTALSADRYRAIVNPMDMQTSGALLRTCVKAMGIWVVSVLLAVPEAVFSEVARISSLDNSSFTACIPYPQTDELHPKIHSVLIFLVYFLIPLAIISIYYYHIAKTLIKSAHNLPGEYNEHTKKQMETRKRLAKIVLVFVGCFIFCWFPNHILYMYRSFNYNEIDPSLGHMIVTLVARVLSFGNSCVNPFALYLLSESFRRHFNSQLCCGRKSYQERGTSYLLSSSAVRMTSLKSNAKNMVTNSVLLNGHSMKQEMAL
Chain of Gastrin-releasing peptide receptor (Homo sapiens) (P30550 whole entry, looked up): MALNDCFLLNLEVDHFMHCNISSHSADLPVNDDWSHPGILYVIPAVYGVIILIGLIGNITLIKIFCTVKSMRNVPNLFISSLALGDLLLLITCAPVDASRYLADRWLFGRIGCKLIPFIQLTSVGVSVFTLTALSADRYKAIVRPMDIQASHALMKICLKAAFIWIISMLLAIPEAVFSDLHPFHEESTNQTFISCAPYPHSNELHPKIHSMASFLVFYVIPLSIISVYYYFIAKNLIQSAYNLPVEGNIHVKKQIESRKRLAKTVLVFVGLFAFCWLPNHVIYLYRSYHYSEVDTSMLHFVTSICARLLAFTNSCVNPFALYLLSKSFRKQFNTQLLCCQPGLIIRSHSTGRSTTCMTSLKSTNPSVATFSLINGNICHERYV

For `CCCC[C@H](NC(=O)[C@H](Cc1ccccc1)NC(=O)[C@H](Cc1cnc[nH]1)NC(=O)C[C@H](NC(=O)[C@@H](NC(=O)[C@H](C)NC(=O)[C@H](Cc1c[nH]c2ccccc12)NC(=O)[C@H](CCC(N)=O)NC(=O)[C@H](N)Cc1ccc(O)cc1)C(C)C)c1ccccc1)C(N)=O` [CAS_0], the Ki in assay [1] came out at 110 nM.

As for `CSCC[C@H](NC(=O)[C@H](Cc1ccccc1)NC(=O)[C@H](Cc1cnc[nH]1)NC(=O)CNC(=O)[C@@H](NC(=O)[C@H](C)NC(=O)[C@H](Cc1c[nH]c2ccccc12)NC(=O)[C@H](CC(C)C)NC(=O)[C@H](CC(N)=O)NC(=O)CN)[C@@H](C)O)C(N)=O` [NMB], the Ki on Neuromedin-B receptor is 0.55 nM; in assay [2], above 10000 nM.

Take `CC(C)[C@H](NC(=O)[C@H](C)NC(=O)[C@H](Cc1c[nH]c2ccccc12)NC(=O)[C@H](CCC(N)=O)NC(=O)[C@H](N)Cc1ccc(O)cc1)C(=O)NCCC(=O)N[C@@H](Cc1cnc[nH]1)C(=O)N[C@@H](Cc1ccccc1)C(=O)NC[C@H](N)C(N)=O` [NSC_0]: the Ki at Neuromedin-B receptor was above 10000 nM; in assay [2] it was 2400 nM; in assay [1], 85 nM.

Turning to `CCCC[C@H](NC(=O)[C@H](Cc1ccccc1)NC(=O)[C@H](Cc1c[nH]cn1)NC(=O)C[C@@H](NC(=O)[C@@H](NC(=O)[C@H](C)NC(=O)[C@H](Cc1c[nH]c2ccccc12)NC(=O)[C@H](CCC(N)=O)NC(=O)[C@H](N)Cc1ccc(O)cc1)C(C)C)c1ccc(Cl)cc1)C(N)=O` [NSC_0], the Ki on Neuromedin-B receptor turned out to be 7200 nM; in assay [2] it was 8.2 nM; in assay [1] it was 1860 nM.

As for `CCCC[C@H](NC(=O)[C@H](Cc1ccccc1)NC(=O)[C@H](Cc1c[nH]cn1)NC(=O)C[C@@H](NC(=O)[C@@H](NC(=O)[C@H](C)NC(=O)[C@H](Cc1c[nH]c2ccccc12)NC(=O)[C@H](CCC(N)=O)NC(=O)[C@H](N)Cc1ccc(O)cc1)C(C)C)c1ccccc1)C(N)=O` [NSC_0], the Ki on Neuromedin-B receptor stood at 2400 nM; in assay [2], 2.8 nM; in assay [1], 151 nM.

In the case of `CCCC[C@H](NC(=O)[C@H](Cc1ccccc1)NC(=O)[C@H](Cc1cnc[nH]1)NC(=O)C[C@@H](NC(=O)[C@@H](NC(=O)[C@H](C)NC(=O)[C@H](Cc1c[nH]c2ccccc12)NC(=O)[C@H](CCC(N)=O)NC(=O)[C@H](N)Cc1ccc(O)cc1)C(C)C)c1cccc(Cl)c1)C(N)=O` [NSC_0], the Ki on Neuromedin-B receptor amounted to 831 nM; in assay [2], 15.8 nM; in assay [1] it was 110 nM.

With `CCCC[C@H](NC(=O)[C@H](Cc1ccccc1)NC(=O)[C@H](Cc1cnc[nH]1)NC(=O)C[C@@H](NC(=O)[C@@H](NC(=O)[C@H](C)NC(=O)[C@H](Cc1c[nH]c2ccccc12)NC(=O)[C@H](CCC(N)=O)NC(=O)[C@H](N)Cc1ccc(O)cc1)C(C)C)c1ccccc1Cl)C(N)=O` [NSC_0], the Ki amounted to 6920 nM on Neuromedin-B receptor, 24 nM in assay [2] and 229 nM in assay [1].

For the compound `CCCC[C@H](NC(=O)[C@H](Cc1ccccc1)NC(=O)[C@H](Cc1cnc[nH]1)NC(=O)C[C@H](NC(=O)[C@@H](NC(=O)[C@H](C)NC(=O)[C@H](Cc1c[nH]c2ccccc12)NC(=O)[C@H](CCC(N)=O)NC(=O)[C@H](N)Cc1ccc(O)cc1)C(C)C)C(=O)NCc1ccccc1)C(N)=O` [NSC_0], the results for the Ki (at Neuromedin-B receptor; in assay [2]; in assay [3]) were 646 nM, 708 nM and 397 nM, respectively.

With `CCCC[C@H](NC(=O)[C@H](Cc1ccccc1)NC(=O)[C@H](Cc1cnc[nH]1)NC(=O)C[C@H](NC(=O)[C@@H](NC(=O)[C@H](C)NC(=O)[C@H](Cc1c[nH]c2ccccc12)NC(=O)[C@H](CCC(N)=O)NC(=O)[C@H](N)Cc1ccc(O)cc1)C(C)C)C(=O)O)C(N)=O` [NSC_0], the Ki on Neuromedin-B receptor was 427 nM; in assay [2] it was 490 nM; in assay [1], 396 nM.

As for `CCCC[C@H](NC(=O)[C@H](Cc1ccccc1)NC(=O)[C@H](Cc1cnc[nH]1)NC(=O)C[C@H](NC(=O)[C@@H](NC(=O)[C@H](C)NC(=O)[C@H](Cc1c[nH]c2ccccc12)NC(=O)[C@H](CCC(N)=O)NC(=O)[C@H](N)Cc1ccc(O)cc1)C(C)C)c1ccc(Cl)cc1)C(N)=O` [NSC_0], the results for the Ki (on Neuromedin-B receptor; in assay [2]; in assay [1]) were 1950 nM, 776 nM and 741 nM, respectively.

Turning to `CCCC[C@H](NC(=O)[C@H](Cc1ccccc1)NC(=O)[C@H](Cc1cnc[nH]1)NC(=O)C[C@H](NC(=O)[C@@H](NC(=O)[C@H](C)NC(=O)[C@H](Cc1c[nH]c2ccccc12)NC(=O)[C@H](CCC(N)=O)NC(=O)[C@H](N)Cc1ccc(O)cc1)C(C)C)c1cccc(Cl)c1)C(N)=O` [NSC_0], the Ki on Neuromedin-B receptor is above 10000 nM; in assay [2] it was 107 nM; in assay [1], 2510 nM.

On to `CCCC[C@H](NC(=O)[C@H](Cc1ccccc1)NC(=O)[C@H](Cc1cnc[nH]1)NC(=O)C[C@H](NC(=O)[C@@H](NC(=O)[C@H](C)NC(=O)[C@H](Cc1c[nH]c2ccccc12)NC(=O)[C@H](CCC(N)=O)NC(=O)[C@H](N)Cc1ccc(O)cc1)C(C)C)c1ccccc1Cl)C(N)=O` [NSC_0], for which the Ki is 5890 nM at Neuromedin-B receptor, 85 nM in assay [2] and 398 nM in assay [1].

Consider `CCCC[C@H](NC(=O)[C@H](Cc1ccccc1)NC(=O)[C@H](Cc1cnc[nH]1)NC(=O)[C@@H](N)CNC(=O)[C@@H](NC(=O)[C@H](C)NC(=O)[C@H](Cc1c[nH]c2ccccc12)NC(=O)[C@H](CCC(N)=O)NC(=O)[C@H](N)Cc1ccc(O)cc1)C(C)C)C(N)=O` [NSC_0], for which the figures for the inhibition constant Ki (at Neuromedin-B receptor; in assay [2]; in assay [1]) were 43 nM, 2.3 nM and 1 nM, respectively.

As for `CCCC[C@H](NC(=O)[C@H](Cc1ccccc1)NC(=O)[C@H](Cc1cnc[nH]1)NC(=O)[C@H](CNC(=O)[C@@H](NC(=O)[C@H](C)NC(=O)[C@H](Cc1c[nH]c2ccccc12)NC(=O)[C@H](CCC(N)=O)NC(=O)[C@H](N)Cc1ccc(O)cc1)C(C)C)NC(=O)c1ccccc1)C(N)=O` [NSC_0], the Ki on Neuromedin-B receptor worked out at 55 nM; in assay [2], 12.3 nM; in assay [1] it was 3.1 nM.

In the case of `CCCC[C@H](NC(=O)[C@H](Cc1ccccc1)NC(=O)[C@H](Cc1cnc[nH]1)NC(=O)[C@H](CNC(=O)[C@@H](NC(=O)[C@H](C)NC(=O)[C@H](Cc1c[nH]c2ccccc12)NC(=O)[C@H](CCC(N)=O)NC(=O)[C@H](N)Cc1ccc(O)cc1)C(C)C)NC(C)=O)C(N)=O` [NSC_0], the Ki at Neuromedin-B receptor stood at 89 nM; in assay [2], 15.8 nM; in assay [1], 1.7 nM.

In the case of `CCCC[C@H](NC(=O)[C@H](Cc1ccccc1)NC(=O)[C@H](Cc1cnc[nH]1)NC(=O)CCNC(=O)[C@@H](NC(=O)[C@H](C)NC(=O)[C@H](Cc1c[nH]c2ccccc12)NC(=O)[C@H](CCC(N)=O)NC(=O)[C@H](N)Cc1ccc(O)cc1)C(C)C)C(N)=O` [NSC_0] (H-[dY]QWAV[βAla]HF[Nle]-NH2), the results for the Ki (on Neuromedin-B receptor; in assay [2]) were 5.9 nM and 0.82 nM, respectively.
